Counter-ions that a name gives are not always drawn.

The record followed here is patent publication US10669268B2, “Bicyclic derivatives” (Hoffmann-La Roche Inc., priority 2012, dated 2020).

This test addresses ATX (human His-tagged) (Homo sapiens (Human), UniProt Q13822). Kind of test: Human ATX enzyme inhibition assay (fluorescence quenching, MR121 substrate). Type of test: biochemical. The settings on record: 30 nM ATX, 1 μM MR121 substrate, 30° C., pH 8.0. Summed up: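 Fluorescence-quenching assay using MR121 substrate at 1 μM final, incubated 15 min at 30 °C. Buffer was 50 mM Tris-HCl pH 8.0 with 140 mM NaCl, 5 mM KCl, 1 mM CaCl2, 1 mM MgCl2 and 0.01% Triton X-100.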
The term IC50 denotes the concentration that inhibits the measured activity by half. A high value points to lower potency. The molecule `O=C(CCc1ccc(-c2ccccn2)cc1)N1C[C@@H]2CN(C(=O)c3ccc4[nH]nnc4c3)C[C@H]2C1` [Example 17.13, 1-[(3aR,6aR)-5-(1H-benzotriazole-5-carbonyl)-hexahydro-pyrrolo[3,4-c]pyrrol-2-yl]-3-(4-pyridin-2-yl-phenyl)-propan-1-one] showed a concentration for half-maximal inhibition (IC50) of 31 nM.
The result for `O=C(CCc1ccc(OC(F)(F)F)cc1)N1CC[C@@H]2CN(C(=O)NCCc3cnn[nH]3)C[C@@H]2CC1` [Example 17.14, (3aS,8aR)-6-[3-(4-trifluoromethoxy-phenyl)-propionyl]-octahydro-pyrrolo[3,4-d]azepine-2-carboxylic acid [2-(3H-[1,2,3]triazol-4-yl)-ethyl]-amide] reads 464 nM; that for `O=C(CCc1cc(Cl)cc(C(F)(F)F)c1)N1CC[C@@H]2CN(C(=O)c3ccc4[nH]nnc4c3)C[C@@H]2CC1` [Example 17.17, 1-((3aR,8aS)-2-(1H-benzo[d][1,2,3]triazole-5-carbonyl)octahydropyrrolo[3,4-d]azepin-6(7H)-yl)-3-(3-chloro-5-(trifluoromethyl)phenyl)propan-1-one], 4 nM; that for `COc1ccc(CCC(=O)N2CC[C@@H]3CN(C(=O)c4ccc5[nH]nnc5c4)C[C@@H]3CC2)c(C(F)(F)F)c1` [Example 17.18, 1-((3aR,8aS)-2-(1H-benzo[d][1,2,3]triazole-5-carbonyl)octahydropyrrolo[3,4-d]azepin-6(7H)-yl)-3-(4-methoxy-2-(trifluoromethyl)phenyl)propan-1-one], 14 nM.
The figure for `O=C(CCc1ccccc1C1CC1)N1CC[C@@H]2CN(C(=O)c3ccc4[nH]nnc4c3)C[C@@H]2CC1` [Example 17.19, 1-((3aR,8aS)-2-(1H-benzo[d][1,2,3]triazole-5-carbonyl)octahydropyrrolo[3,4-d]azepin-6(7H)-yl)-3-(2-cyclopropylphenyl)propan-1-one] is 12 nM; for `COc1cc(CCC(=O)N2C[C@@H]3CN(C(=O)c4ccc5[nH]nnc5c4)C[C@H]3C2)cc(OC(F)(F)F)c1` [Example 17.20, 1-[(3aR,6aR)-5-(1H-benzotriazole-5-carbonyl)-1,3,3a,4,6,6a-hexahydropyrrolo[3,4-c]pyrrol-2-yl]-3-[3-methoxy-5-(trifluoromethoxy)phenyl]propan-1-one] it is 2 nM.
The figure for `O=C(/C=C/c1ccc(OC(F)(F)F)cc1)N1CC[C@@H]2CN(C(=O)[C@@H]3Cc4[nH]cnc4CN3)C[C@@H]2CC1` [Example 18, (E)-3-[4-(Trifluoro-methoxy)-phenyl]-1-[(3aS,8aR)-2-((S)-4,5,6,7-tetrahydro-1H-imidazo[4,5-c]pyridine-6-carbonyl)-octahydro-pyrrolo[3,4-d]azepin-6-yl]-prop-2-en-1-one hydrochloride] is 6740 nM.
For `Cc1ccc(C(C)C)c(OCC(=O)N2C[C@@H]3CN(C(=O)c4ccc5[nH]nnc5c4)C[C@H]3C2)c1` [Example 19, 1-[(3aS,6aS)-5-(1H-benzotriazole-5-carbonyl)-hexahydro-pyrrolo[3,4-c]pyrrol-2-yl]-2-(2-isopropyl-5-methyl-phenoxy)-ethanone], the half-maximal inhibitory concentration (IC50) worked out at 7 nM.
The result for `O=C(COc1ccc(OC(F)(F)F)cc1Br)N1C[C@@H]2CN(C(=O)c3ccc4[nH]nnc4c3)C[C@H]2C1` [Example 19.01, 1-[(3aS,6aS)-5-(1H-benzotriazole-5-carbonyl)-hexahydro-pyrrolo[3,4-c]pyrrol-2-yl]-2-(2-bromo-4-trifluoromethoxy-phenoxy)-ethanone] reads 12 nM; that for `O=C(c1ccc(-c2ccc(Cl)cc2)cc1)N1C[C@@H]2CN(C(=O)c3ccc4[nH]nnc4c3)C[C@H]2C1` [Example 19.02, (1H-benzotriazol-5-yl)-[(3aR,6aR)-5-(4′-chloro-biphenyl-4-carbonyl)-hexahydro-pyrrolo[3,4-c]pyrrol-2-yl]-methanone], 7 nM; that for `CC(C)c1cc(C#N)ccc1OCC(=O)N1C[C@@H]2CN(C(=O)c3ccc4[nH]nnc4c3)C[C@H]2C1` [Example 19.03, 4-{2-[(3aS,6aS)-5-(1H-benzotriazole-5-carbonyl)-hexahydro-pyrrolo[3,4-c]pyrrol-2-yl]-2-oxo-ethoxy}-3-isopropyl-benzonitrile], 8 nM.
Molecule `CC(=O)c1ccccc1OCC(=O)N1C[C@@H]2CN(C(=O)c3ccc4[nH]nnc4c3)C[C@H]2C1` [Example 19.04, 2-(2-acetyl-phenoxy)-1-[(3aS,6aS)-5-(1H-benzotriazole-5-carbonyl)-hexahydro-pyrrolo[3,4-c]pyrrol-2-yl]-ethanone] gave an IC50 of 1710 nM. This IC50 is about 210-fold higher than that of the molecule before.
The figure for `Cc1cc(OCC(=O)N2C[C@@H]3CN(C(=O)c4ccc5[nH]nnc5c4)C[C@H]3C2)c(C(C)C)cc1C#N` [Example 19.05, 4-{2-[(3aS,6aS)-5-(1H-benzotriazole-5-carbonyl)-hexahydro-pyrrolo[3,4-c]pyrrol-2-yl]-2-oxo-ethoxy}-5-isopropyl-2-methyl-benzonitrile] is 5 nM; for `O=C(c1ccc2ccccc2c1)N1C[C@@H]2CN(C(=O)c3ccc4[nH]nnc4c3)C[C@H]2C1` [Example 19.06, (1H-benzotriazol-5-yl)-[(3aR,6aR)-5-(naphthalene-2-carbonyl)-hexahydro-pyrrolo[3,4-c]pyrrol-2-yl]-methanone] it is 250 nM; for `COc1cc(C(=O)N2C[C@@H]3CN(C(=O)c4ccc5[nH]nnc5c4)C[C@H]3C2)cc2ccccc12` [Example 19.07, (1H-benzotriazol-5-yl)-[(3aS,6aS)-5-(4-methoxy-naphthalene-2-carbonyl)-hexahydro-pyrrolo[3,4-c]pyrrol-2-yl]-methanone] it is 24 nM.
The figure for `CCOc1cc(C#N)ccc1OCC(=O)N1C[C@@H]2CN(C(=O)c3ccc4[nH]nnc4c3)C[C@H]2C1` [Example 19.08, 4-{2-[(3aS,6aS)-5-(1H-benzotriazole-5-carbonyl)-hexahydro-pyrrolo[3,4-c]pyrrol-2-yl]-2-oxo-ethoxy}-3-ethoxy-benzonitrile] is 36 nM; for `O=C(CCc1ccc(OC(F)(F)F)c(F)c1)N1C[C@@H]2CN(C(=O)c3ccc4[nH]nnc4c3)C[C@H]2C1` [Example 19.09, 1-[(3aR,6aR)-5-(1H-benzotriazole-5-carbonyl)-hexahydro-pyrrolo[3,4-c]pyrrol-2-yl]-3-(3-fluoro-4-trifluoromethoxy-phenyl)-propan-1-one] it is 10 nM.
The result for `CC(C)c1cc(Cl)ccc1OCC(=O)N1C[C@@H]2CN(C(=O)c3ccc4[nH]nnc4c3)C[C@H]2C1` [Example 19.10, 1-[(3aS,6aS)-5-(1H-benzotriazole-5-carbonyl)-hexahydro-pyrrolo[3,4-c]pyrrol-2-yl]-2-(4-chloro-2-isopropyl-phenoxy)-ethanone] reads 6 nM; that for `O=C(c1ccc(-c2ccc(Cl)cc2)cc1)N1C[C@@H]2CN(C(=O)[C@@H]3CCc4[nH]nnc4C3)C[C@H]2C1` [Example 19.11, [(3aS,6aS)-5-(4′-chloro-biphenyl-4-carbonyl)-hexahydro-pyrrolo[3,4-c]pyrrol-2-yl]-(R)-4,5,6,7-tetrahydro-1H-benzotriazol-5-yl-methanone], 8 nM; that for `O=C(CCc1ccc(OC(F)(F)F)cc1)N1C[C@H]2CN(C(=O)c3ccc4[nH]nnc4c3)C[C@@H]2C1` [Example 19.12, 1-[(3aS,6aS)-5-(1H-benzotriazole-5-carbonyl)-hexahydro-pyrrolo[3,4-c]pyrrol-2-yl]-3-(4-trifluoromethoxy-phenyl)-propan-1-one], 10 nM.
`O=C(COc1ccccc1C1CCCO1)N1C[C@@H]2CN(C(=O)c3ccc4[nH]nnc4c3)C[C@H]2C1` (stereo partly drawn) [Example 19.14, 1-[(3aS,6aS)-5-(1H-benzotriazole-5-carbonyl)-hexahydro-pyrrolo[3,4-c]pyrrol-2-yl]-2-[2-(tetrahydro-furan-2-yl)-phenoxy]-ethanone] displayed a half-maximal inhibitory concentration (IC50) of 273 nM.
The figure for `COc1cc(C(=O)N2C[C@H]3CN(C(=O)c4ccc5[nH]nnc5c4)C[C@@H]3C2)cc2ccccc12` [Example 19.15, (1H-benzotriazol-5-yl)-[(3aR,6aR)-5-(4-methoxy-naphthalene-2-carbonyl)-hexahydro-pyrrolo[3,4-c]pyrrol-2-yl]-methanone] is 20 nM; for `CC(C)(C)c1ccccc1OCC(=O)N1C[C@@H]2CN(C(=O)c3ccc4[nH]nnc4c3)C[C@H]2C1` [Example 19.16, 1-[(3aS,6aS)-5-(1H-benzotriazole-5-carbonyl)-hexahydro-pyrrolo[3,4-c]pyrrol-2-yl]-2-(2-tert-butyl-phenoxy)-ethanone] it is 31 nM.
The figure for `O=C(c1ccc2[nH]nnc2c1)N1C[C@H]2CN(C(=O)[C@H]3CC[C@H](c4ccc(Cl)cc4)CC3)C[C@@H]2C1` [Example 19.17, [(3aR,6aR)-5-(1H-benzotriazole-5-carbonyl)-hexahydro-pyrrolo[3,4-c]pyrrol-2-yl]-[trans-4-(4-chloro-phenyl)-cyclohexyl]-methanone] is 10 nM; for `Cc1cc(CCC(=O)N2C[C@@H]3CN(C(=O)c4ccc5[nH]nnc5c4)C[C@H]3C2)c(C(C)C)cc1C#N` [Example 19.21, 4-[3-[(3aR,6aR)-5-(1H-benzotriazole-5-carbonyl)-1,3,3a,4,6,6a-hexahydropyrrolo[3,4-c]pyrrol-2-yl]-3-oxopropyl]-2-methyl-5-propan-2-ylbenzonitrile] it is 3 nM.
`CC(C)c1cc(C#N)ccc1CCC(=O)N1C[C@@H]2CN(C(=O)c3ccc4[nH]nnc4c3)C[C@H]2C1` [Example 19.22, 4-[3-[(3aR,6aR)-5-(1H-benzotriazole-5-carbonyl)-1,3,3a,4,6,6a-hexahydropyrrolo[3,4-c]pyrrol-2-yl]-3-oxopropyl]-3-propan-2-ylbenzonitrile] showed an IC50 of 2 nM.
